Measurements from patent publication US5573922A, “Immunological detection method for triazines” (Boehringer Mannheim GmbH, priority 1993, dated 1996).

Tests used:
[1] = system: antiserum S 4612 (sheep antiserum against triazine); assay: Competitive ELISA, sheep triazine antiserum with heterologous POD conjugate atra(deethyl-4-ED)-SATP-PODp(MH); format: binding; conditions: 50 mU/ml; for lower detection limit: concentration at which signal is 80% of maximum signal; for cross reaction (%): relative to terbutylazine (quotient of hapten concentrations at half maximum signal)
Method: 10 sheep are immunized with triazine immunogen according to example 1 in Freund's adjuvant. The dose is […] per animal. The immunizations are repeated over six months or longer, each at intervals of 4 weeks. Antiserum samples are taken from all animals once per month and examined for the presence of triazine antibodies. For this purpose a series of terbutylazine standards are measured in a competitive ELISA using the heterologous POD conjugate atra(deethyl-4-ED)-SATP-POD(MH) according to example 3. The procedure for this measurement is described in detail in example 5.
(§1) Microtitre plates (Maxisorp F96,Nunc Co. Order No. 4-42404) are coated with antibodies against the Fc part of sheep IgG which have been obtained by immunosorptive purification of the IgG fraction from donkey antiserum. The donkey antibody is dissolved in the coating buffer at a concentration of 10 µg/ml protein and 100 μl of this solution is pipetted into each well of the microtitre plate. After incubating for 1 hour at room temperature while shaking, the solution is discarded and the plate is washed three times with washing solution.
(§2) Sheep antiserum against triazine is diluted 1:50,000 with incubation buffer. Each well of the microtitre plate is coated with 100 μl of the diluted solution. During the incubation period (1 hour, conditions as above) the IgG molecules from the sheep serum bind to the donkey antibodies bound to the wall. They are subsequently washed as above.
A series of solutions is prepared which contain terbutylazine at concentrations of 1000/500/250/125/62.5/31/16/8/4/0 ng/l as well as the conjugate atra(deethyl-4-ED)-SATP-PODp(MH) according to the invention at a standard concentration of 50 mU/ml in the incubation buffer.
Dilution series of other triazines are prepared in a similar manner with maximum concentrations of […] (atrazine, cyanazine and desethylterbutylazine), 10,000 ng/l (propazine, simazine, desethylatrazine) and 100,000 ng/l (desisopropylatrazine) and dilution steps of 1:2 which also contain the said hapten-POD conjugate.
(§3) The wells of the microtitre plate which were precoated as previously described, are filled with these solutions (100 μl in each case), incubated for 1 hour and subsequently washed as described.
(§4) The free hapten molecules compete with the hapten-POD conjugate for the limited amount of hapten-specific antibodies on the wall of the wells. The less conjugate is bound the more free hapten is present in the solution and the better the hapten is recognized by the antibodies.
(§5) Every well is filled with 100 μl substrate solution and incubated while shaking until the colour development in the samples without hapten appears subjectively to be high enough. Then the absorbance in all wells is determined as a differential measurement at the wavelengths 405/492 nm.
(§6) In the graph of the measured signal as a function of the hapten concentration used, the "relative affinity", i.e. the hapten concentration whose measured signal is half the size of the maximum signal (at a hapten concentration of 0), is determined for each triazine compound. In this process a linear interpolation is made between selected measurement points on the curve. This gives the cross-reaction of the triazines in relation to terbutylazine as the quotient [formula]
(§7) The "lower limit of detection" is determined in an analogous manner for each triazine compound as the concentration at which the measured signal is 80% of the maximum signal.

[2] = system: antiserum S 4612 (sheep antiserum against triazine); assay: Competitive ELISA, sheep triazine antiserum with homologous POD conjugate atra(terbutyl-6ah)-OSu-POD; format: binding; conditions: 30 mU/ml; for lower detection limit (ng/l) / lower detection limit: concentration at which signal is 80% of maximum signal; for cross reaction (%): relative to terbutylazine (quotient of hapten concentrations at half maximum signal)
Method: as §1, §2, §3, §4, §5, §6, §7
In a second experiment the cross reaction and the lower limit of detection for each of the above-mentioned triazines is determined in an analogous manner using the homologous conjugate atra(terbutyl-6ah)-OSu-POD. In this case the POD concentration is 30 mU/ml. The highest hapten concentrations are 10,000 ng/l for terbutylazine and 100,000 ng/l for all triazines.
Eight further hapten concentrations are prepared by serial dilution of these solutions in a ratio of 1:2 and a blank value without triazine is determined in each case.

Row | SMILES | lower detection limit [1] | cross reaction (%) [1] | lower detection limit (ng/l) [2] | cross reaction (%) [2] | lower detection limit [2]
1 | CCNc1nc(Cl)nc(NC(C)C)n1 [atrazine] | 17 ng/L | 73% | 1,600 ng/l | 4% | 
2 | CCNc1nc(Cl)nc(NC(C)(C)C#N)n1 [cyanazine] | 10 ng/L | 102% |  | 11% | 310 ng/L
3 | CC(C)Nc1nc(N)nc(Cl)n1 [desethylatrazine] | 90 ng/L | 7% | 9,500 ng/l | < 0.3% | 
4 | CC(C)(C)Nc1nc(N)nc(Cl)n1 [desethylterbutylazine] | 10 ng/L | 102% |  | 9% | 430 ng/L
5 | CC(C)Nc1nc(Cl)nc(NC(C)C)n1 [propazine] | 24 ng/L | 26% |  | 8% | 620 ng/L
6 | CCNc1nc(Cl)nc(NCC)n1 [simazine] | 60 ng/L | 10% |  | 0.9% | 4.100 ng/L
7 | CCNc1nc(Cl)nc(NC(C)(C)C)n1 [terbutylazine] | 12 ng/L | 100% |  | 100% | 100 ng/L
